From a flash point compilation (Sun et al. 2020) come the findings set out here.

On to `CC(C)CC(=O)CC(C)C` [diisobutylketone], for which the flash point is 49 °C. For `CC(C)COC(=O)c1ccccc1C(=O)OCC(C)C` [diisobutylphthalate] the value was 185 °C; for `CC(C)CCSCCC(C)C` [diisopentylsulfide], 77 °C; for `CC(C)OC(C)C` [diisopropylether], -28 °C. For `CCCCCOCCCCC` [dipentylether] the value was 57 °C.

Consider `c1ccc(Cc2ccccc2)cc1` [diphenylmethane], for which the flash point came to 127 °C.

`CCCNCCC` [dipropylamine] showed a flash point of 7 °C. Regarding `CCCOC(=O)OCCC` [dipropylcarbonate], the flash point came out at 55 °C.

As to `CCCSCCC` [dipropylsulfide], the flash point was 28 °C. Then `C=COC=C` [divinylether], with -47 °C; and `CCCCCCCCCCCC=O` [dodecanal], with 102 °C. In turn, `CCO` [ethanol] yielded a flash point of 12 °C. As to `CCOC(=O)C(C)C` [ethyl2-methylpropanoate], the flash point stood at 13 °C. For the compound `CCOC(=O)CC(C)=O` [ethylacetoacetate], the flash point turned out to be 70 °C.

Regarding `CCc1ccccc1` [ethylbenzene], the flash point was determined as 21 °C.

The compound `CCOC(=O)c1ccccc1` [ethylbenzoate] had a flash point of 84 °C. For `CCCC(=O)OCC` [ethylbutanoate] the value was 20 °C. In turn, `CCOC(=O)CCl` [ethylchloroacetate] gave a flash point of 53 °C. For `CCOC(=O)C=Cc1ccccc1` [ethylcinnamate] the value was 135 °C; for `CCOC=O` [ethylformate], -19 °C; for `C=C(C)C(=O)OCC` [ethylmethacrylate], 19 °C.

`CCSC` [ethylmethylsulfide]: the flash point is -18 °C. `CCCCC(=O)OCC` [ethylpentanoate] returned a flash point of 35 °C. Consider `CCCOCC` [ethylpropylether], for which the flash point was -25 °C. For `C=COCC` [ethylvinylether] the value was -45 °C.

For the compound `Fc1ccccc1` [fluorobenzene], the flash point is -15 °C. Then `O=Cc1ccco1` [furfural], with 58 °C; and `OCc1ccco1` [furfurylalcohol], with 75 °C; and `CCCCCCC(=O)O` [heptanoicacid], with 109 °C. With `CCCCCCCOC(C)=O` [heptylacetate], the flash point was found to be 67 °C. As for `CCCCCCCN` [heptylamine], the flash point stood at 44 °C.

In turn, `CCCCCCCOC=O` [heptylformate] registered a flash point of 60 °C. Take `CCCCCC(=O)O` [hexanoicacid]: the flash point is 102 °C. As for `CCCCCC(=O)OC(=O)CCCCC` [hexanoicanhydride], the flash point came to 113 °C. For `CCCCCCN` [hexylamine] the value was 27 °C. `CCCCCCc1ccccc1` [hexylbenzene] gave a flash point of 83 °C. For `CCCCCCOC(=O)CC` [hexylpropanoate] the value was 65 °C. With `CC(C)C(=O)OC(=O)C(C)C` [isobutanoicanhydride], the flash point worked out at 67 °C. For `CC(C)CN` [isobutylamine] the value was -10 °C. As to `CC(C)Cc1ccccc1` [isobutylbenzene], the flash point is 50 °C. For `CC(C)COC(=O)c1ccccc1` [isobutylbenzoate] the value was 102 °C; for `CC(C)COC=O` [isobutylformate], 4 °C; for `CC(C)C#N` [isobutyronitrile], 8 °C.

Compound `CCC(=O)OCCC(C)C` [isopentylpropanoate] came in with a flash point of 46 °C.

For `CC1=CC(=O)CC(C)(C)C1` [isophorone], the flash point amounted to 84 °C. For `CC(=O)OC(C)C` [isopropylacetate] the value was 2 °C. For `CC(C)OCC1CO1` (stereo not given) [isopropylglycidylether] the value was 33 °C.

In turn, `COC(C)C` [isopropylmethylether] returned a flash point of -47 °C. Compound `CCc1cccc(CC)c1` [m-diethylbenzene] returned a flash point of 51 °C.

As to `CCc1cccc(C)c1` [m-ethyltoluene], the flash point worked out at 38 °C.

The compound `Cc1cccc(C(C)C)c1` [m-isopropyltoluene] registered a flash point of 47 °C.

Regarding `CCCCCC#CC(=O)OC` [methyl2-octynoate], the flash point turned out to be 89 °C. `COC(=O)c1ccccc1` [methylbenzoate] returned a flash point of 80 °C.

Regarding `COC(=O)C1CCCCC1` [methylcyclohexanecarboxylate], the flash point was 60 °C.

`COC(=O)C1CC1` [methylcyclopropanecarboxylate] yielded a flash point of 18 °C.

The compound `CCCCCCC(=O)OC` [methylheptanoate] had a flash point of 52 °C. `C=C(C)C(=O)OC` [methylmethacrylate] displayed a flash point of 10 °C.

Turning to `CCCCC(=O)OC` [methylpentanoate], the flash point turned out to be 22 °C.

For `CCC(=O)OC` [methylpropanoate], the flash point was -2 °C. For `O=[N+]([O-])c1ccccc1` [nitrobenzene] the value was 88 °C. `CCCCCCCCC=O` [nonanal]: the flash point was 63 °C. Then `CCCCCCCCCc1ccccc1` [nonylbenzene], with 117 °C. As for `CCc1ccccc1C` [o-ethyltoluene], the flash point came out at 39 °C. For `Cc1ccccc1C(C)C` [o-isopropyltoluene] the value was 50 °C; for `Cc1ccccc1N` [o-toluidine], 85 °C; for `Cc1ccccc1C` [o-xylene], 30 °C.

`CCCCCCCC=O` [octanal] returned a flash point of 51 °C. The compound `CCCCCCCCOC(C)=O` [octylacetate] had a flash point of 82 °C. For `CCCCCCCCN` [octylamine] the value was 60 °C; for `CCCCCCCCc1ccccc1` [octylbenzene], 107 °C. In turn, `CCCCCCCCOC=O` [octylformate] had a flash point of 69 °C. For `CCc1ccc(CC)cc1` [p-diethylbenzene] the value was 55 °C; for `Cc1ccc(C(C)C)cc1` [p-isopropyltoluene], 47 °C; for `CCCCC(=O)O` [pentanoicacid], 85 °C. The compound `CCCCCN` [pentylamine] had a flash point of 4 °C. `CCCCCc1ccccc1` [pentylbenzene] registered a flash point of 66 °C. For the compound `CCCCCC1CCCCC1` [pentylcyclohexane], the flash point came out at 63 °C. `CCCCCOC=O` [pentylformate] yielded a flash point of 26 °C. The compound `CCC(=O)O` [propionicacid] returned a flash point of 58 °C. For `CCC#N` [propionitrile] the value was 6 °C. On to `CCCOC(C)=O` [propylacetate], for which the flash point worked out at 10 °C. Then `C=CC(=O)OCCC` [propylacrylate], with 24 °C; and `CCCN` [propylamine], with -30 °C. For `CCCc1ccccc1` [propylbenzene] the value was 30 °C; for `CCCOC(=O)c1ccccc1` [propylbenzoate], 98 °C. For `CCCC1CCCCC1` [propylcyclohexane] the value was 31 °C; for `CCCC1CCCC1` [propylcyclopentane], 16 °C.

`CC1CO1` (stereo not given) [propyleneoxide] registered a flash point of -37 °C. Compound `CCCOC=O` [propylformate] showed a flash point of -3 °C. Regarding `c1cc[nH]c1` [pyrrole], the flash point was 33 °C. The compound `c1ccc2ncccc2c1` [quinoline] registered a flash point of 101 °C. For the compound `CCC(C)OC(C)=O` (stereo not given) [sec-butylacetate], the flash point turned out to be 16 °C. The compound `CC(=O)CC(=O)OC(C)(C)C` [tert-butylacetoacetate] registered a flash point of 76 °C.

Regarding `CC(C)(C)C1CCCCC1` [tert-butylcyclohexane], the flash point stood at 40 °C.

`COC(C)(C)C` [tert-butylmethylether]: the flash point is -28 °C.

`CCC(=O)OC(C)(C)C` [tert-butylpropanoate] showed a flash point of 20 °C.

Compound `CCC(C)(C)OC(C)=O` [tert-pentylacetate] displayed a flash point of 25 °C. For `C1CCSCC1` [thiacyclohexane] the value was 21 °C. Then `C1CCSC1` [thiacyclopentane], with 13 °C. With `c1ccsc1` [thiophene], the flash point was -9 °C.

`C/C=C/C=O` [trans-2-butenal] came in with a flash point of 9 °C.

As for `C/C=C/CCCC` [trans-2-heptene], the flash point is -6 °C. Consider `C/C=C/CCC` [trans-2-hexene], for which the flash point was -25 °C.

The compound `CC/C=C/C(=O)O` [trans-2-pentenoicacid] came in with a flash point of 102 °C. Then `CC/C=C/CC` [trans-3-hexene], with -25 °C. Then `CC/C=C/CCCC` [trans-3-octene], with 9 °C; and `C/C=C/C(C)C` [trans-4-methyl-2-pentene], with -27 °C; and `CCCCN(CCCC)CCCC` [tributylamine], with 71 °C. `CCN(CC)CC` [triethylamine] had a flash point of -9 °C. For `CCCCCCCCCCCOC(C)=O` [undecylacetate] the value was 111 °C.
